Experimental data taken from US9492368B2, “External preparation for skin” (HAYASHIBARA CO., LTD., priority 2011, dated 2016).
Marks after values point to notes of the source that are not given here.

How the values were obtained:
NHDF cells = experiment: Collagen production by NHDF cells (Sircol collagen assay); format: cell-based, human; settings: three days
Source text: For the anti-wrinkle action of glucosyladenosines, the effect of glucosyladenosines on the collagen production in the dermis was examined as follows using a normal human fetal fibroblast (NHDF) commonly used for evaluating agents for enhancing collagen production in the skin. […] Thereafter, the culture supernatant in each well was removed by aspiration, and the resulting cells were washed with phosphate buffered saline (PBS), and admixed with pepsin, commercialized by Sigma-Aldrich Co. LLC., Missouri, USA, which had been diluted with 1 M acetic acid to give a concentration of 1 mg/ml, in a volume of 250 μl/well. The resulting plates were shaken at ambient temperature for four hours, and the cells adhered to the wells were detached therefrom with a cell scraper and subjected to pipetting, followed by collecting the resulting cell suspension after the pepsin digestion into “EPPENDORF TUBE”, a product name of a 1.5 ml microtube, commercialized by Eppendorf AG, Hamburg, Germany. “Sicrol Collagen Assay Kit”, a product name of a developing color reagent for quantifying collagen, commercialized by Biocolor, CA, USA, was added to the tubes in a volume of 500 μl/tube, mixed with a vortex mixer, kneaded by allowing the tubes upside-down at an ambient temperature for exact 30 min using “RT-50”, a product name of a rotator commercialized by TAITEC Corporation, Saitama, Japan, and centrifuged (1,500 rpm) at 4° C. for 10 min to remove supernatants. The resulting sediments were admixed with 1 N NaOH in a volume of 100 μl/tube and dissolved by pipetting. The resulting solutions were all transferred to “FALCON MICROTEST™96”, a product name of a 96-well microplate commercialized by Becton, Dickinson and Company, NJ, USA, and measured for absorbance (A560-A650) on “Vmax Microplate Reader”, a product name of an absorption spectrometer commercialized by Molecular Devices Corporation, CA, USA. The collagen level in each well was determined based on a standard curve prepared by using type I collagen commercialized by KOKEN Co., Ltd., Tokyo, Japan, and the data are shown in Table 6 in parallel.

profilaggrin (PFG) = experiment: Real-time PCR gene expression in NHEK cells: profilaggrin; format: cell-based, human; settings: 1 μM, seven days, relative to control = 1.00
Experimental: Since glucosyladenosines were confirmed in Experiment 5 to have an action of enhancing the differentiation of keratinocytes effective for skin improvement, a test for examining the change of the expression level of a molecular marker gene of keratinocytes, as an index, was performed as follows using a real-time PCR analysis method to examine the above action in more detail. The expression level of a ceramide-synthesis-related gene was also studied to examine the influence of glucosyladenosines on ceramide synthesis that had been known to have an important role in moisturizing the skin and barrier function of the skin and deemed to be effective for skin improvement. As genes for analysis, profilaggrin (PFG: a later differentiation marker) and involucrin (INV: an early differentiation marker) as differentiation markers of keratinocytes and β-glucocerebrosidase (GCase) and sphingomyelinase (SMase) as ceramide-synthesis-related enzymes were selected, and a gene for cyclophilin B (CypB) as an internal standard upon practicing PCR reaction was used (see FIG. 7). NHEK cells were inoculated to 6-well plate coated with collagen in an amount of 8×10^4 cells/1.5 ml/well, cultured with EpiLife medium, and cultured at 37° C. for two days under a 5 v/v % CO2 condition. Thereafter, the culture medium was removed, and the resulting cells were added with a fresh EpiLife medium containing 5′-glucosyladenosine, 3′-glucosyladenosine, or adenosine in a volume of 1.5 ml/well (giving a final concentration of 1 μM of any one of glucosyladenosines and adenosine), and cultured for seven days while replacing the medium with a fresh one containing any one of glucosyladenosines and adenosine in a volume of 1.5 ml/well every other day. After completion of the culture, each well was washed twice with PBS(K−), followed by adding 0.2 ml/well of 0.025% by mass of trypsin/EDTA solution to the resulting cells and allowing the cells to stand at an ambient temperature for five minutes to detach them from the plates. […]

[1] = test system: three-dimensional skin model (EPI-200 Kit); experiment: Residual property in three-dimensional skin model (composition of permeated solution after 24 hours); settings: 0.1% test sample in 30% ethanol
Experimental: “EPI Assay Medium”, a product name of EPI100 assay medium commercialized by Kurabo Industries Ltd., Okayama, Japan, was added to “12-WELL MULTI-MICROPLATE”, a product name of 12-well plate commercialized by Becton, Dickinson and Company, NJ, USA, in a volume of 0.33 ml/well; and “EPI-200 Kit”, a product name of a three-dimensional skin model cup, commercialized by Kanebo Cosmetics Inc., Tokyo, Japan, was transferred to each well. […] 5′-Glucosyladenosine prepared by the method in Experiment 1-2,3′-glucosyladenosine prepared by the method in Experiment 2, or adenosine was dissolved in 30% ethanol to give a final concentration of 0.1%, and 0.1 ml of each of the resulting solutions was added to each of the skin model cup. After incubating at 37° C. for 24 hours in a 5% CO2 condition, sample solutions (media in wells) were collected, subjected to ultrafiltration with “[sequence] 0.5 BIOMAX-5 MEMBRANE”, a product name of membrane commercialized by Nihon Millipore K.K., Tokyo, Japan, and diluted with the mobile phase. The diluent was subjected to HPLC under the following conditions and determined for the contents of 5′- and 3′-glucosyladenosines with an alternatively prepared standard curve.
<Conditions for HPLC Analysis>
Apparatus: an HPLC Pump, MODEL 510; a pump controller, MODEL 680; an autoinjector, MODEL 712; a detector, MODEL 2487; a data processing (quantity calculation), EMPOWER 2 SOFTWARRE, commercialized by Nihon Millipore K.K., Tokyo, Japan;
Column: “YMC-PACK ODS AQ-303”, a product name of an ODS column, ø4.6 mm×250 mm, commercialized by YMC Co., Ltd., Kyoto, Japan;
Mobile phase: {20 mM Acetic acid-ammonium acetate buffer (pH 3.5)}/(methanol)=92/8 (v/v);
Detection wavelength: 260 nm;
Injection volume: 10 μl; and
Column temperature: 40° C.

Row | Compound | Collagen production level (NHDF cells; 5 μM in medium) | Collagen production level (NHDF cells; 10 μM in medium) | Gene expression level PFG (profilaggrin (PFG)) | Composition of permeated solution: 5′-glucosyladenosine [1] | Concentration of 5′-glucosyladenosine in permeated solution [1] | Composition of permeated solution: 3′-glucosyladenosine [1] | Concentration of 3′-glucosyladenosine in permeated solution [1]
1 | Nc1ncnc2c1ncn2[C@@H]1O[C@H](CO[C@H]2O[C@H](CO)[C@@H](O)[C@H](O)[C@H]2O)[C@@H](O)[C@H]1O [5′-Glucosyladenosine, α-D-glucopyranosyl-(1→5′)-adenosine] | 3.53* μg/well | 4.54** μg/well | 2.54** | 65% | 60 µM |  | 
2 | Nc1ncnc2c1ncn2[C@@H]1O[C@H](CO)[C@@H](O[C@H]2O[C@H](CO)[C@@H](O)[C@H](O)[C@H]2O)[C@H]1O [3′-Glucosyladenosine, α-D-glucopyranosyl-(1→3′)-adenosine] | 3.39* μg/well | 4.37** μg/well | 2.03* |  |  | 27% | 25 µM
3 | Nc1ncnc2c1ncn2[C@@H]1O[C@H](CO)[C@@H](O)[C@H]1O [Adenosine, reference compound] | 2.61 μg/well | 3.02* μg/well | 1.41 |  |  |  | 
